Values joined by “and” are separate entries in the source; they are usually repeats but may differ in a detail not shown here. Equal entries are not always repeated.
Key:
[1] = target: AURKC (Homo sapiens, UniProt Q9UQB9); assay: Kinase activity screening (SelectScreen), AURKC; format: biochemical; details: read-out: kinase activity inhibited
[2] = target: DDR2 (Homo sapiens, UniProt Q16832); assay: Kinase activity screening (SelectScreen), DDR2; format: biochemical
[3] = target: various kinases (Homo sapiens, UniProt O14936); assay: LanthaScreen Eu Kinase Binding Assay, panel of 486 biochemical kinase assays; details: CASK
[4] = target: various kinases (Homo sapiens, UniProt O75460); assay: as above; details: ERN1
[5] = target: various kinases (Homo sapiens, UniProt P10721, D820E); assay: as above; details: KIT D820E
[6] = target: various kinases (Homo sapiens, UniProt P10721, N822K); assay: as above; details: KIT N822K
[7] = target: various kinases (Homo sapiens, UniProt P10721, Y823D); assay: as above; details: KIT Y823D
[8] = target: various kinases (Homo sapiens, UniProt P11362, V561M); assay: as above; details: FGFR1 V561M
[9] = target: various kinases (Homo sapiens, UniProt P15056, V600E); assay: as above; details: BRAF V599E
[10] = target: various kinases (Homo sapiens, UniProt P22607, G697C); assay: as above; details: FGFR3 G697C
[11] = target: various kinases (Homo sapiens, UniProt P24941); assay: as above
[12] = target: various kinases (Homo sapiens, UniProt P30291); assay: as above; details: kinase WEE1; LanthaScreen Binding
[13] = target: various kinases (Homo sapiens, UniProt P36894); assay: as above; details: BMPR1A (ALK3)
[14] = target: various kinases (Homo sapiens, UniProt P45983); assay: as above; details: MAPK8 (JNK1)
[15] = target: various kinases (Homo sapiens, UniProt P52564); assay: as above; details: MAP2K6 (MKK6)
[16] = target: various kinases (Homo sapiens, UniProt P57058); assay: as above; details: HUNK
[17] = target: various kinases (Homo sapiens, UniProt Q15208); assay: as above; details: kinase STK38 (NDR); LanthaScreen Binding
[18] = target: various kinases (Homo sapiens, UniProt Q15746); assay: as above; details: MYLK (MLCK)
[19] = target: various kinases (Homo sapiens, UniProt Q86UE8); assay: as above; details: kinase TLK2; LanthaScreen Binding
[20] = target: various kinases (Homo sapiens, UniProt Q8IVH8); assay: as above; details: MAP4K3 (GLK)
[21] = target: various kinases (Homo sapiens, UniProt Q92630); assay: as above; details: DYRK2
[22] = target: various kinases (Homo sapiens, UniProt Q9BYP7); assay: as above; details: kinase WNK3; LanthaScreen Binding
[23] = target: various kinases (Homo sapiens, UniProt Q9NRM7); assay: as above; details: LATS2
[24] = target: various kinases (Homo sapiens, UniProt Q9UM73, F1174L); assay: as above; details: ALK F1174L
[25] = tested on: various kinases; assay: as above
[26] = tested on: MON MRT cells; assay: Confluency assay (IncuCyte ZOOM), MON; format: cell-based, human; details: increasing concentrations starting at 31.25nM, 48 hours, p-value=0.004
Method: (§1) For further evaluation of the effect of the PLK4 inhibitor over tumor cell proliferation, confluency was measured over a 48 hour period. MON, BT-12, G401 and DAOY cells were plated in 96-well plates with a density of 6 x 10^4 per well. […] Confluency was monitored for 48 hours by taking phase contrast images every 2 hours and measured using an IncuCyte ZOOM system (Essen BioScience, USA). Experiments were performed in triplicates.

[27] = tested on: G401 RTK cells; assay: Confluency assay (IncuCyte ZOOM), G401; format: cell-based, human; details: increasing concentrations starting at 31.25nM, 48 hours, p-value=0.004
Method: as §1

[28] = tested on: DAOY MB cells; assay: Confluency assay (IncuCyte ZOOM), DAOY; format: cell-based, human; details: increasing concentrations starting at 31.25nM, 48 hours, p-value=0.029
Method: as §1

[29] = tested on: RT and MB cell lines; assay: Clonogenic recovery assay; format: cell-based, human; details: 6 days 100nM, then 12 days 0.1% DMSO
Method: For each cell line, 200 cells were seeded into 6-well tissue culture plates. […] On the 7th day, cell were washed with 1X PBS twice and then incubated with 0.1% DMSO for an additional 12 days. […] The number of colonies was counted. All experiments were performed in triplicates.

[30] = tested on: G401, BT-16, DAOY and D283 cell lines; assay: Flow cytometry cell cycle analysis (polyploidy), other RT and MB lines; format: cell-based, human; details: 100nM for 48 hours
Method: (§2) Cell cycle evaluation was performed by staining the cells with PI (Thermo Fisher Scientific, USA) according to manufacturer’s instructions. […] Data was analyzed using Modfit LT from Verity Software House. Experiments were performed in triplicates.

[31] = tested on: non-neoplastic human fibroblast cell line HFF-SCC058; assay: Flow cytometry cell cycle analysis (polyploidy), fibroblasts; format: cell-based; details: 100nM
Method: as §2

[32] = set-up: method as in PMID 28057846; details: adults with advanced solid tumors; cited from earlier work
[33] = target: hERG K+ channel (Homo sapiens, UniProt Q12809); assay: biochemical

Sequence of DDR2 (Q16832 22-855): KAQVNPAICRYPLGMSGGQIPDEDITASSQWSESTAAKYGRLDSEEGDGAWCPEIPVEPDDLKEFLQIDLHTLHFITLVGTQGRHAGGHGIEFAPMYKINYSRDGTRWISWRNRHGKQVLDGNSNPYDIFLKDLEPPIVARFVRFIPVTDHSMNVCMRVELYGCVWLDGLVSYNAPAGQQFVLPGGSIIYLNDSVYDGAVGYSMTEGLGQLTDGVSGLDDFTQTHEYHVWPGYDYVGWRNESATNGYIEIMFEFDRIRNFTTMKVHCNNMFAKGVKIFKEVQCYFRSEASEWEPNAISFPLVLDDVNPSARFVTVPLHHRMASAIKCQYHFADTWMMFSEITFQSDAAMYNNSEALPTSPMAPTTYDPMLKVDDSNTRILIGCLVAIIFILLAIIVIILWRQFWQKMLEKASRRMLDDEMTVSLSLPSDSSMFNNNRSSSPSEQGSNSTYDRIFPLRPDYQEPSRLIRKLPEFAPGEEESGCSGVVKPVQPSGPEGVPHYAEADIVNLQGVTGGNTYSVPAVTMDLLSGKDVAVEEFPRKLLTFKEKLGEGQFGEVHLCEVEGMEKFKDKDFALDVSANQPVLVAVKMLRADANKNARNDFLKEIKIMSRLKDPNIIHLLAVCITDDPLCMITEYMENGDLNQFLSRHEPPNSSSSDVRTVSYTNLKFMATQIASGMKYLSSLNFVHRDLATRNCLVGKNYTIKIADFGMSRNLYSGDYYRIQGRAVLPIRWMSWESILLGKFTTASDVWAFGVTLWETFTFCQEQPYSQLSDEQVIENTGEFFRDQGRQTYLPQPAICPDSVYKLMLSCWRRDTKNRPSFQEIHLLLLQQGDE
Sequence of various kinases (Homo sapiens, UniProt Q86UE8) (Q86UE8 whole entry): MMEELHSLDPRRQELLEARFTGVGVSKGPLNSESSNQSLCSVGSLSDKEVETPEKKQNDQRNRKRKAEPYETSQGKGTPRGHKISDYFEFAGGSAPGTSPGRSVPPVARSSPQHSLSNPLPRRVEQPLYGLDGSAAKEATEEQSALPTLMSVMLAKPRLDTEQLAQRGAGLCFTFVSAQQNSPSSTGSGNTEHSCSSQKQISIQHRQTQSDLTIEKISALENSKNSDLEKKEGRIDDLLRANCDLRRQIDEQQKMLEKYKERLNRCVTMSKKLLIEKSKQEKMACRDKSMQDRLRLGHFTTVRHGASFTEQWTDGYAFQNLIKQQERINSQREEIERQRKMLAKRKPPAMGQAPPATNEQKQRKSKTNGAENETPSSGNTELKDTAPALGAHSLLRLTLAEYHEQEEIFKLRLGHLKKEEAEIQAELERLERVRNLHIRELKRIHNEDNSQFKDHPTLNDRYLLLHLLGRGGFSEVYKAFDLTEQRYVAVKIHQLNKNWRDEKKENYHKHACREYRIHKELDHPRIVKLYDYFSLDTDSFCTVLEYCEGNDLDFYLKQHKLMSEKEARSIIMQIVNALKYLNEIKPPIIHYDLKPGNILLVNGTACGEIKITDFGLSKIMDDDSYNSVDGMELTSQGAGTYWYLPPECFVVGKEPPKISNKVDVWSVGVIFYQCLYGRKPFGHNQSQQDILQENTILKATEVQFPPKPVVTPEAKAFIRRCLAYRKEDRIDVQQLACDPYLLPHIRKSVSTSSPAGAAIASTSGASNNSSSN
Sequence of various kinases (Homo sapiens, UniProt Q15208) (Q15208 whole entry): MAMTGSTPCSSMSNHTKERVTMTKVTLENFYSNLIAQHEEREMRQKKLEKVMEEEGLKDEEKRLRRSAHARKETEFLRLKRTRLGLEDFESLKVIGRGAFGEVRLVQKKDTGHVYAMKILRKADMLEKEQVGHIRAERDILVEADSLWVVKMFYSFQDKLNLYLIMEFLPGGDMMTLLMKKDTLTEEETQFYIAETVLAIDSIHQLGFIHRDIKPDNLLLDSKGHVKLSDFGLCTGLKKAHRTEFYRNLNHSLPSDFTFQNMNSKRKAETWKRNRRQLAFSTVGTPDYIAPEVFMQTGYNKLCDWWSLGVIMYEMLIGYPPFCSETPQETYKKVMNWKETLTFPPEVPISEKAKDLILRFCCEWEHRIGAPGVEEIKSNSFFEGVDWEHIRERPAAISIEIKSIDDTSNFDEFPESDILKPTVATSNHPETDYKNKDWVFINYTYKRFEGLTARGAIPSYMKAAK
Sequence of various kinases (Homo sapiens, UniProt Q9BYP7) (Q9BYP7 whole entry): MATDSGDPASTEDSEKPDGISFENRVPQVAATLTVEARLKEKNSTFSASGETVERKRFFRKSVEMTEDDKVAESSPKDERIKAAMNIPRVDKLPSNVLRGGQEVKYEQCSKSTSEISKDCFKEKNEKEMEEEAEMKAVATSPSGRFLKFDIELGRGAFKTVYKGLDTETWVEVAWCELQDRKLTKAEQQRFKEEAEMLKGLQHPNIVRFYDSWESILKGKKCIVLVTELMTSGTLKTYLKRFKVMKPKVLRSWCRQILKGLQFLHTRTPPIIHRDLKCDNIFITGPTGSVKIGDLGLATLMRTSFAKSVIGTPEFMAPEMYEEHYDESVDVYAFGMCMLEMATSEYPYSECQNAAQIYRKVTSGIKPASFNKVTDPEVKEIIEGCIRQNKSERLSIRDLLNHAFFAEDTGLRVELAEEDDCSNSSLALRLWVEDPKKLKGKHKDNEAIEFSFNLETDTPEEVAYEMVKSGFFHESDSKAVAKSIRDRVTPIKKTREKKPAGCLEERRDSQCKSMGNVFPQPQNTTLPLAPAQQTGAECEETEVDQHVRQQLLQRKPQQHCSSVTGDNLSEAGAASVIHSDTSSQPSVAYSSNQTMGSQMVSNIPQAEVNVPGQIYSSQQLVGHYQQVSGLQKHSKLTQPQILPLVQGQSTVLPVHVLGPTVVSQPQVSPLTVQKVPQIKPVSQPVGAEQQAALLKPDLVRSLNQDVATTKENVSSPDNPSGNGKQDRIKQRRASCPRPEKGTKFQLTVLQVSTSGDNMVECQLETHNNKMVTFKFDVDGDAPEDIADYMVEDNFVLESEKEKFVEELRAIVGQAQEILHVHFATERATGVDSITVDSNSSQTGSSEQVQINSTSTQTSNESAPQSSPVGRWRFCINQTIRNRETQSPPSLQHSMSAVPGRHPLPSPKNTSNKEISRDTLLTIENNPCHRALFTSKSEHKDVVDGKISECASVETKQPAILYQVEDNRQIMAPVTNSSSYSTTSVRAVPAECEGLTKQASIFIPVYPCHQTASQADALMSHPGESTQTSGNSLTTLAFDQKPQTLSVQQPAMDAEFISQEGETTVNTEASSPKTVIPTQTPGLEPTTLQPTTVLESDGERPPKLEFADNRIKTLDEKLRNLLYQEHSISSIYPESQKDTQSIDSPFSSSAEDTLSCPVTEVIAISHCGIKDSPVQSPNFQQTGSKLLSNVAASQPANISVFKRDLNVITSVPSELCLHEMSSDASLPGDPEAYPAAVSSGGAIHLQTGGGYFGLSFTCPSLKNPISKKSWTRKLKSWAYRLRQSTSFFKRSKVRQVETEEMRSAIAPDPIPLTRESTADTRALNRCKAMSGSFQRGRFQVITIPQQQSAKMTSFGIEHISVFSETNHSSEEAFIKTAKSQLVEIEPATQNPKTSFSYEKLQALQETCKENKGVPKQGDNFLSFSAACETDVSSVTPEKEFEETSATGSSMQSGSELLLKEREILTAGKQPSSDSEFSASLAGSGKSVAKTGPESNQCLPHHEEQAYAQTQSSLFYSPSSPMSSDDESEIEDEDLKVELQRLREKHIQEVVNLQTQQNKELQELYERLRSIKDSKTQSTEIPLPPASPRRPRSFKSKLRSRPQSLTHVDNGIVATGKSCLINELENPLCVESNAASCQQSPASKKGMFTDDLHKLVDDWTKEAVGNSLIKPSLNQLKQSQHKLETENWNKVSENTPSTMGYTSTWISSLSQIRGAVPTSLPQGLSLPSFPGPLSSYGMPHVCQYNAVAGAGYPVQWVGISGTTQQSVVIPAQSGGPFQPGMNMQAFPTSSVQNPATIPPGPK
Sequence of various kinases (Homo sapiens, UniProt P30291) (P30291 whole entry): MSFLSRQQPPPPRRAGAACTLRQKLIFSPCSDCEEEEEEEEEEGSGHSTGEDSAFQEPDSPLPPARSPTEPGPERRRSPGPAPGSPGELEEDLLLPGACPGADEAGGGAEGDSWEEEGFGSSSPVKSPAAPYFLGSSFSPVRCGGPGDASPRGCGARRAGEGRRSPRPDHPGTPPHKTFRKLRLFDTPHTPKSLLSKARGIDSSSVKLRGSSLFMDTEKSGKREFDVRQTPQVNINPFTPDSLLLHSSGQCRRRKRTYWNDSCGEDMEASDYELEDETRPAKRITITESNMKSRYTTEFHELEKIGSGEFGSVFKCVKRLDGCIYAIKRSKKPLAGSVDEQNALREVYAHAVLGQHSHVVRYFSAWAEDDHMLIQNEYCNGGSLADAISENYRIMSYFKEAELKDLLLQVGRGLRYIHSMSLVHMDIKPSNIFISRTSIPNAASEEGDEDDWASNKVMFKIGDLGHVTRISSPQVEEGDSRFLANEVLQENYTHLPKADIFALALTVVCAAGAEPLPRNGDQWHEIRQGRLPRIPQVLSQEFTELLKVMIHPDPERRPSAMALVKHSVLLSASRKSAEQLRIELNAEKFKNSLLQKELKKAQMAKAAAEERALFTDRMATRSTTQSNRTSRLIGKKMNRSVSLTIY
Sequence of various kinases (Homo sapiens, UniProt P45983) (P45983 whole entry): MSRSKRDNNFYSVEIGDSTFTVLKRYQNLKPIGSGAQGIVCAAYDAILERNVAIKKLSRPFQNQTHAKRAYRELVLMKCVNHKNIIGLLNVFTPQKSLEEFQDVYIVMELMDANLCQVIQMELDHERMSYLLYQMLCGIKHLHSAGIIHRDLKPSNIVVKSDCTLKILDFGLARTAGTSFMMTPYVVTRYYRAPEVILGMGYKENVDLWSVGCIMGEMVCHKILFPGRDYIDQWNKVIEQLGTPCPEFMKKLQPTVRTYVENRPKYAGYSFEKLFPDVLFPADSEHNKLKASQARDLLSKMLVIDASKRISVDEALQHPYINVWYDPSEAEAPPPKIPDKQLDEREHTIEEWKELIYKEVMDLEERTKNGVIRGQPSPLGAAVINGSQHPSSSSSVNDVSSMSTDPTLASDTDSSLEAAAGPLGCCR

For `COc1ccc2c(c1)[C@]1(C[C@H]1c1ccc3c(/C=C/c4ccc(CN5C[C@@H](C)O[C@@H](C)C5)cc4)n[nH]c3c1)C(=O)N2` [CFI-400945], the inhibition at 0.5 µM [1] was 84%, the IC50 ([2]; 10-point titration) was 0.315 µM and the “% Inhibition” value ([2]; DDR2, LanthaScreen Binding) was 9% and 18%. For the same compound, the “% Inhibition” value [3] was 57% and 65%, the “% Inhibition” value [4] was 3% and 7% and the “% Inhibition” value [5] was 3% and 4%. For the same compound, the “% Inhibition” value [6] was 6% and 3%, the “% Inhibition” value [7] was 4% and -6% and the “% Inhibition” value [8] was 55% and 57%. The “% Inhibition” value [9] was 9% and 7%, the “% Inhibition” value [10] was 30% and 40% and the “% Inhibition” value ([11]; CDK2/cyclin A1) was 12% and 19%. The “% Inhibition” value ([11]; CDK2/cyclin E1) was 9%, the “% Inhibition” value ([11]; CDK2/cyclin O) was 13% and 19% and the “% Inhibition Average” value [12] was -5%. The “% Inhibition Duplicate #1” value [12] was -7%, the “% Inhibition Duplicate #2” value [12] was -2% and the “% Inhibition” value [13] was -4% and 3%. The “% Inhibition” value [14] was 0% and -1%, the “% Inhibition” value [15] was 14% and the “% Inhibition” value [16] was 21% and 22%. For the same compound, the “% Inhibition Average” value [17] was 0%, the “% Inhibition Duplicate #1” value [17] was -5% and the “% Inhibition Duplicate #2” value [17] was 4%. The “% Inhibition” value [18] was 0% and -2%, the “% Inhibition Average” value [19] was 9% and the “% Inhibition Duplicate #1” value [19] was 14%. For the same compound, the “% Inhibition Duplicate #2” value [19] was 5%, the “% Inhibition” value [20] was 23% and 19% and the “% Inhibition” value [21] was 1% and 10%. The “% Inhibition Average” value [22] was -2%, the “% Inhibition Duplicate #1” value [22] was -2% and the “% Inhibition Duplicate #2” value [22] was -1%. The “% Inhibition” value [23] was 16% and 14%, the “% Inhibition” value [24] was 52% and 50% and the “% Inhibition” value ([25]; ALK T1151_L1152insT) was 31% and 35%. For the same compound, the “% Inhibition” value ([25]; EGFR (ErbB1) d747-749 A750P) was 12% and 23%, the “% Inhibition” value ([25]; FLT3 ITD) was 45% and 41% and the “% Inhibition” value ([25]; MAP3K7/MAP3K7IP1 (TAK1-TAB1)) was 8%. For the same compound, the “FC, delay in reaching confluency” value [26] was 1.56, the “FC, delay in reaching confluency” value [27] was 1.78 and the “FC, delay in reaching confluency” value [28] was 1.70. The clonogenic recovery [29] was “none of the cell lines recovered their ability to generate colonies”, the “polyploidy (cell cycle analysis)” value [30] was “extreme polyploidy” and the “polyploidy (cell cycle analysis)” value [31] was “No effect”. The “tolerability, preliminary phase I results” value [32] was “well tolerated at doses up to 72 mg” and the IC50 [33] was greater than 0.5 µM.

Source: publication PMC5762315, “Inhibition of polo-like kinase 4 (PLK4): a new therapeutic option for rhabdoid tumors and pediatric medulloblastoma” (Oncotarget, 2017)
